{"source": "patent US12195427B2", "about": "“MASP-2 inhibitors and methods of use” (priority 2018, dated 2025)", "target": "MASP-2 CCP2-SP (Homo sapiens (Human), UniProt O00187)", "sequence (O00187 445-686)": "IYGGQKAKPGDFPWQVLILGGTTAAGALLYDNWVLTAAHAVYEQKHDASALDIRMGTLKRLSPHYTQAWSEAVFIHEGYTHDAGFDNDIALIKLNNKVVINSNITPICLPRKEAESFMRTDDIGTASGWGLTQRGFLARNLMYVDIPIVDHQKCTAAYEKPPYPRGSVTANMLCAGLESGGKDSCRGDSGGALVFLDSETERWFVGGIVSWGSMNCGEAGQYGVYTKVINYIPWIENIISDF", "sequence (O00187 364-432 partner)": "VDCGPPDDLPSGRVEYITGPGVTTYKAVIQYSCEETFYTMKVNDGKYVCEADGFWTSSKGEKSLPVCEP", "assay": "MASP-2 co-crystallization, X-ray crystallography and structure analysis (H-bonds, van der Waals contacts);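 for Ligand-pharmacophore element distance, pharmacophore element C2: distance from averaged pharmacophore element to bound ligand; missing value means element absent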;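 for Ligand-pharmacophore element distance, pharmacophore element C3: distance from averaged pharmacophore element to bound ligand; missing value means element absent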;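 for Ligand-pharmacophore element distance, pharmacophore element C4: distance from averaged pharmacophore element to bound ligand; missing value means element absent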;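 for Ligand-pharmacophore element distance, pharmacophore element C5: distance from averaged pharmacophore element to bound ligand; missing value means element absent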", "parameters": "van der Waals contact distance, MASP-2 HIS 483 atom CD2 / van der Waals contact distance, MASP-2 HIS 483 atom NE2 / van der Waals contact distance, SER 654 C to compound atom / van der Waals contact distance, SER 654 O to compound atom / van der Waals contact distance, TRP 655 C to compound atom / van der Waals contact distance, MASP-2 GLY 528 atom CA / van der Waals contact distance TRP 655 atom CZ3 / van der Waals contact distance TRP 655 atom N / van der Waals contact distance TRP 655 atom CE3 / van der Waals contact distance GLY 656 atom C / van der Waals contact distance GLY 656 atom CA / van der Waals contact distance GLY 656 atom O / van der Waals contact distance, MASP-2 TYR 607 atom CD1 / van der Waals contact distance, MASP-2 PRO 606 atom O / d(C3,CA1) / d(CA1,N1)2 / d(H4,O1) / d(H4,O2) / d(O1,O2) / d(CA1,O2) / d(CA6,O1) / d(CA6,O2) / d(CA1,C5) / d(O2,H3) / d(N2,C2) / d(CA5,N2) / d(N2,C4) / d(N2,C6) / d(N2,CA3) / d(N2,O3) / d(O4,H2): unit not given beside the values", "details": "for Ligand-pharmacophore element distance, pharmacophore element C2 / Ligand-pharmacophore element distance, pharmacophore element C3 / Ligand-pharmacophore element distance, pharmacophore element C4 / Ligand-pharmacophore element distance, pharmacophore element C5 / Ligand-pharmacophore element distance, pharmacophore element C6 / Ligand-pharmacophore element distance, pharmacophore element C7 / Ligand-pharmacophore element distance, pharmacophore element CA1 / Ligand-pharmacophore element distance, pharmacophore element CA2 / Ligand-pharmacophore element distance, pharmacophore element CA3 / Ligand-pharmacophore element distance, pharmacophore element CA4 / Ligand-pharmacophore element distance, pharmacophore element CA5 / Ligand-pharmacophore element distance, pharmacophore element CA6: Table A4-1", "in_short": "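First, CCP2-SP constructs with or without a 6His tag are produced in E. coli. Crystals are then soaked once or twice with inhibitor, cryoprotected in 20% glycerol or frozen directly, and diffracted at synchrotron beamlines. Phasing uses molecular replacement with parts of 1Q3X.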", "key": {"[1]": {"details": "Table A5-1 pharmacophore: distance between elements, S2/S1 region"}, "[2]": {"details": "Table A5-2 pharmacophore distance, S3/S4 region"}, "[3]": {"details": "Table A7-1, between pharmacophore elements of the bound compound"}, "[4]": {"details": "Table A8-6, nearest protein atom in cell to the left"}}}
{"smiles": "CC(NC(=O)C1CC(Cc2ccccc2)CN1)C(=O)NCc1cnc2c(c1)c(Cl)cn2C.Cl.Cl", "note": "(stereo not drawn) [1450_B]", "values": [{"measurement": "Ligand-pharmacophore element distance, pharmacophore element C2", "value": 0}, {"measurement": "Ligand-pharmacophore element distance, pharmacophore element C3", "value": 0}, {"measurement": "Ligand-pharmacophore element distance, pharmacophore element C4", "value": 0}, {"measurement": "Ligand-pharmacophore element distance, pharmacophore element C5", "value": 1.67}, {"measurement": "Ligand-pharmacophore element distance, pharmacophore element C6", "value": 0}, {"measurement": "Ligand-pharmacophore element distance, pharmacophore element C7", "value": 1.3}, {"measurement": "Ligand-pharmacophore element distance, pharmacophore element CA1", "value": 0.94}, {"measurement": "Ligand-pharmacophore element distance, pharmacophore element CA2", "value": 1.24}, {"measurement": "Ligand-pharmacophore element distance, pharmacophore element CA3", "value": 0}, {"measurement": "Ligand-pharmacophore element distance, pharmacophore element CA4", "value": 0}, {"measurement": "Ligand-pharmacophore element distance, pharmacophore element CA5", "value": 0}, {"measurement": "Ligand-pharmacophore element distance, pharmacophore element CA6", "value": 0}, {"measurement": "d(CA1,C5)", "setting": "[1]", "value": 3.41}, {"measurement": "d(CA1,O1)", "setting": "[1]", "value": 5.49}, {"measurement": "d(CA1,O2)", "setting": "[1]", "value": 4.57}, {"measurement": "d(CA1,O4)", "setting": "[1]", "value": 1.74}, {"measurement": "d(H4,O1)", "setting": "[1]", "value": 3.14}, {"measurement": "d(H4,O2)", "setting": "[1]", "value": 3.46}, {"measurement": "d(O1,O2)", "setting": "[1]", "value": 3.83}, {"measurement": "d(N2,CA2)", "setting": "[2]", "value": 6.07}, {"measurement": "d(O2,H3)", "setting": "[2]", "value": 2.32}, {"measurement": "d(O2,N2)", "setting": "[2]", "value": 2.67}, {"measurement": "a(C5, CA1, O1)", "setting": "Table A6-1 pharmacophore angle", "value": 150.20}, {"measurement": "a(CA1, O1, O2)", "setting": "Table A6-1 pharmacophore angle", "value": 98.92}, {"measurement": "a(O1, CA1, C7)", "setting": "Table A6-1 pharmacophore angle", "value": 139.92}, {"measurement": "a(O1, CA1, O4)", "setting": "Table A6-1 pharmacophore angle", "value": 66.73}, {"measurement": "a(O1, O2, H4)", "setting": "Table A6-1 pharmacophore angle", "value": 109.15}, {"measurement": "a(O1, O2, H3)", "setting": "Table A6-2 pharmacophore angle", "value": 123.50}, {"measurement": "a(O1, O2, N2)", "setting": "Table A6-2 pharmacophore angle", "value": 138.89}, {"measurement": "a(O2, N2, CA2)", "setting": "Table A6-2 pharmacophore angle", "value": 155.81}, {"measurement": "Pharmacophore torsion angle a(C5, CA1, O1, H4)", "setting": "[3]", "value": 13.21}, {"measurement": "Pharmacophore torsion angle a(C7, CA1, O1, H4)", "setting": "[3]", "value": "−150.35"}, {"measurement": "Pharmacophore torsion angle a(H4, O1, O2, H3)", "setting": "[3]", "value": "−176.95"}, {"measurement": "Pharmacophore torsion angle a(H4, O1, O2, N2)", "setting": "[3]", "value": 177.59}, {"measurement": "Pharmacophore torsion angle a(O1, H4, O2, CA1)", "setting": "[3]", "value": "−91.88"}, {"measurement": "Pharmacophore torsion angle a(O1, O2, N2, CA2)", "setting": "Table A7-2, between pharmacophore elements of the bound compound", "value": 137.59}]}
{"smiles": "O=c1oc(-c2ccccc2[N+](=O)[O-])nc2ccccc12", "note": "[compound 14]", "values": [{"measurement": "H-bond distance to MASP-2 ALA 469 atom N", "setting": "Table A1 (H-Bonds), ALA 469 N", "value": 3}, {"measurement": "H-bond distance to MASP-2 HIS 483 atom NE2", "setting": "Table A1 (H-Bonds), HIS 483 NE2", "value": 2.89}, {"measurement": "van der Waals contact distance, MASP-2 ALA 468 atom C", "setting": "Table A2-1", "value": 3.69}, {"measurement": "van der Waals contact distance, MASP-2 ALA 468 atom CA", "setting": "Table A2-1", "value": 3.52}, {"measurement": "van der Waals contact distance, MASP-2 ALA 468 atom CB", "setting": "Table A2-1", "value": 3.52}, {"measurement": "van der Waals contact distance, MASP-2 ALA 469 atom CA", "setting": "Table A2-1", "value": 3.89}, {"measurement": "van der Waals contact distance, MASP-2 HIS 483 atom CD2", "setting": "Table A2-1", "value": 3.72}, {"measurement": "van der Waals contact distance, MASP-2 PHE 529 atom CE1", "setting": "Table A2-3", "value": 3.21}, {"measurement": "van der Waals contact distance, MASP-2 amino acid atom to compound atom", "setting": "Table A2-7: SER 628 (CB, O, OG)", "value": 3.65}, {"measurement": "van der Waals contact distance, VAL 653 CB to compound atom", "setting": "Table A2-11", "value": 3.77}, {"measurement": "van der Waals contact distance, TRP 655 C to compound atom", "setting": "Table A2-12", "value": 3.72}, {"measurement": "van der Waals contact distance, TRP 655 CA to compound atom", "setting": "Table A2-12", "value": 3.69}, {"measurement": "van der Waals contact distance, MASP-2 amino acid atom to compound atom", "setting": "Table A2 section before Table A2-8", "value": 3.89}, {"measurement": "Ligand-pharmacophore element distance, pharmacophore element C2", "value": 0}, {"measurement": "Ligand-pharmacophore element distance, pharmacophore element C3", "value": 0}, {"measurement": "Ligand-pharmacophore element distance, pharmacophore element C4", "value": 0}, {"measurement": "Ligand-pharmacophore element distance, pharmacophore element C5", "value": 0}, {"measurement": "Ligand-pharmacophore element distance, pharmacophore element C6", "value": 0}, {"measurement": "Ligand-pharmacophore element distance, pharmacophore element C7", "value": 0}, {"measurement": "Ligand-pharmacophore element distance, pharmacophore element CA1", "value": 1.47}, {"measurement": "Ligand-pharmacophore element distance, pharmacophore element CA2", "value": 0}, {"measurement": "Ligand-pharmacophore element distance, pharmacophore element CA3", "value": 0}, {"measurement": "Ligand-pharmacophore element distance, pharmacophore element CA4", "value": 0}, {"measurement": "Ligand-pharmacophore element distance, pharmacophore element CA5", "value": 0}, {"measurement": "Ligand-pharmacophore element distance, pharmacophore element CA6", "value": 1.68}, {"measurement": "Ligand-pharmacophore element distance, pharmacophore element H1", "setting": "Table A4-2, element H1", "value": 0}, {"measurement": "Ligand-pharmacophore element distance, pharmacophore element H2", "setting": "Table A4-2, element H2", "value": 4.66}, {"measurement": "Ligand-pharmacophore element distance, pharmacophore element H3", "setting": "Table A4-2, element H3", "value": 0}, {"measurement": "Ligand-pharmacophore element distance, pharmacophore element H4", "setting": "Table A4-2, element H4", "value": 1.82}, {"measurement": "Ligand-pharmacophore element distance, pharmacophore element N1", "setting": "Table A4-2, element N1", "value": 0}, {"measurement": "Ligand-pharmacophore element distance, pharmacophore element N2", "setting": "Table A4-2, element N2", "value": 0}, {"measurement": "Ligand-pharmacophore element distance, pharmacophore element O1", "setting": "Table A4-2, element O1", "value": 3.89}, {"measurement": "Ligand-pharmacophore element distance, pharmacophore element O2", "setting": "Table A4-2, element O2", "value": 0.46}, {"measurement": "Ligand-pharmacophore element distance, pharmacophore element O3", "setting": "Table A4-2, element O3", "value": 0}, {"measurement": "Ligand-pharmacophore element distance, pharmacophore element O4", "setting": "Table A4-2, element O4", "value": 0}, {"measurement": "d(CA1,O1)", "setting": "[1]", "value": 3.49}, {"measurement": "d(CA1,O2)", "setting": "[1]", "value": 3.51}, {"measurement": "d(CA6,O1)", "setting": "[1]", "value": 7.02}, {"measurement": "d(CA6,O2)", "setting": "[1]", "value": 3.51}, {"measurement": "d(H4,O1)", "setting": "[1]", "value": 3.02}, {"measurement": "d(H4,O2)", "setting": "[1]", "value": 3.13}, {"measurement": "d(O1,O2)", "setting": "[1]", "value": 5.28}, {"measurement": "a(CA1, O1, O2)", "setting": "Table A6-1 pharmacophore angle", "value": 139.05}, {"measurement": "a(O1, CA6, O2)", "setting": "Table A6-1 pharmacophore angle", "value": 75.74}, {"measurement": "a(O1, O2, H4)", "setting": "Table A6-1 pharmacophore angle", "value": 61.95}, {"measurement": "Pharmacophore torsion angle a(CA6, O1, H4, O2)", "setting": "[3]", "value": 43.29}, {"measurement": "Pharmacophore torsion angle a(O1, H4, O2, CA1)", "setting": "[3]", "value": 38.29}, {"measurement": "Pharmacophore protein distance to MET_658 (first MET_658 column)", "setting": "Table A8-6, 6th residue column, nearest protein atom in cell to the left", "value": 2.13}, {"measurement": "Pharmacophore protein distance to MET_658 (second MET_658 column)", "setting": "Table A8-6, 9th residue column, nearest protein atom in cell to the left", "value": 3.80}, {"measurement": "Pharmacophore protein distance to GLY_528", "setting": "[4]", "value": 3.51}, {"measurement": "Pharmacophore protein distance to PHE_529", "setting": "[4]", "value": 2.77}, {"measurement": "Pharmacophore protein distance to PRO_608", "setting": "[4]", "value": 4.32}, {"measurement": "Pharmacophore protein distance to SER_611", "setting": "[4]", "value": 2.64}, {"measurement": "Pharmacophore protein distance to TRP_655", "setting": "Table A8-6, pharmacophore elements C6, CA3, O3, H1, nearest protein atom in cell to the left", "value": 3.76}]}
